Results on 1 compound are retold here after patent US20120321590A1, “BRIDGED POLYCYCLIC COMPOUNDS” (priority 2011, published 2012).

pEC50: −log10 of the molar value.

The subject of assay [1] is chimeric replicon containing the genotype 1b sequence for NS3 through NS5A and genotype 1a (H77) sequence for the NS5B region. Nature of the assay: Transient replicon assay, genotype 1a chimeric replicon. In kind it is cell-based, HCV. The note with it: read-out: EC50 1a; Huh7-Lunet cells transfected with chimeric replicon RNA, cultured 4 days, luciferase activity. On the procedure:
(§1) The transient replicon assay utilizes the genotype 1b (Con1) dicistronic subgenomic replicon. Genotype 1a activity was determined using a chimeric replicon containing the genotype 1b sequence for NS3 through NS5A nonstructural proteins and genotype 1a (H77) sequence for the NS5B region.
(§2) The RNA transcripts were generated using the Megascript T7 kit (Applied Biosystems, Foster City, Calif.). Exponentially growing Huh7-Lunet cells were mixed with 4 μg of replicon RNA and plated into a 96-well plate Gene Pulser MXcell Electroporation System (Bio-Rad, Hercules, Calif.). Electroporation was immediately performed at 250 V and 750 μF capacitance with a single exponential waveform pulse. Transfected cells were transferred to Dulbecco modified Eagle medium in the presence of 10% FBS and plated into 96-well plates with 7,500 cells per well. Compounds at various concentrations were added to the cells after 2 hours and were cultured for 4 days. The cells were lysed with the Bright-Glo Reagent (Promega, Madison, Wis.) and luciferase activity was measured with a luminometer (Wallac 1420 Multilabel HTS Counter Victor 2). The background control was replicon cells treated with 100 nM BILN-2061, an inhibitor of the HCV protease. Dose responses were performed in triplicate and the values were averaged. All experiments were repeated at least three times to verify the reproducibility.
(§3) The EC50 values were determined using a standard four-parameter dose response equation.

Assay [2] relates to genotype 1b (Con1) dicistronic subgenomic replicon. Kind of assay: Transient replicon assay, genotype 1b. In kind it is cell-based, HCV. The note with it: Huh7-Lunet cells transfected with replicon RNA, cultured 4 days, luciferase activity. On the procedure:
as §1, §2, §3
Background: In antiviral work, replicon cells carry a viral genome segment that copies itself.

`CS(=O)(=O)Nc1ccc2c(c1)S(=O)(=O)N=C(C1=C(O)[C@@H]3C4C5CC6C4C6C5[C@@H]3N(Cc3ccc(F)cc3)C1=O)N2` (mixture of isomers) [Example 8, rac-N-{3-[(1R,9S)-10-[(4-Fluorophenyl)methyl]-13-hydroxy-11-oxo-10-azapentacyclo[7.4.0.0^2,7.0^3,5.0^4,8]tridec-12-en-12-yl]-1,1-dioxo-4H-1λ^6,2,4-benzothiadiazin-7-yl}methanesulfonamide]: the pEC50 (usually the negative decadic logarithm of the EC50, by convention in mol/L) in assay [1] was 6.47; in assay [2] it was 8.40.
